Reference: patent US20050261342A1, “Metabolites of (+)-(2S,3S)-3(2-methoxy-5- trifluoromethoxybenzylamino)-2-phenyl-piperidine” (Pfizer Inc., priority 2004, published 2005)

Assay: Profiling and quantitative assessment of radiolabelled metabolites in human subjects after a single oral dose of [14C]-(+)-(2S, 3S)-3-(2-methoxy-5-trifluoromethoxybenzylamino)-2-phenyl-piperidine
Type: in vivo
Conditions: single 30 mg (free base) oral dose of [14C] parent compound, HPLC radioprofiling of pooled serum (1-24 h)
Protocol: Six healthy male human subjects (4 extensive metabolizers (EM) of CYP2D6 and 2 poor metabolizers (PM) of CYP2D6) were administered in a single 30 mg (free base) oral dose of (+)-(2S, 3S)-3-(2-methoxy-5-trifluoromethoxybenzylamino)-2-phenyl-piperidine containing 100 *Ci of [14C]-(+)-(2S, 3S)-3-(2-methoxy-5-trifluoromethoxybenzylamino)-2-phenyl-piperidine (Lot # 49800-59-3, specific activity 1.22 mCi/mmol, radio purity of >99%). Blood samples were collected into red-top tubes (no preservatives or anticoagulant or serum separator) at the following time points: 1, 4, 8, 12, and 24 hours post dose. The blood samples were centrifuged at 4° C. and serum was transferred to clean tubes.
a) Serum samples were pooled by human subject separately (3 ml from each sampling time, total of 15 ml) and aliquots of 1.5 mL from each pool were extracted with 5 mL of acetonitrile. The mixtures were vortex mixed for 5 minutes and centrifuged at 3500 rpm for 5 minutes to remove the precipitated proteins. Supernatants were combined and a small aliquot of supernatant was counted. Approximately 96% (average of all subjects) of the radioactivity was recovered in the supernatant. The supernatants were evaporated under N^2 in a turbovap at room temperature. […]
Measuring the radioactivity in the individual peaks separated on the HPLC column using a -RAM detector allowed the quantification of each metabolite. […]

accounted for % of the total radioactivity (EM subjects (extensive metabolizers of CYP2D6)): approximately 56% | accounted for % of the total radioactivity (PM subjects (poor metabolizers of CYP2D6)): ~29%
Structure (SMILES): O=C(O)c1cc(OC(F)(F)F)ccc1O [5-trifluoromethoxy salicylic acid, 2-Hydroxy-5-trifluoromethoxy-benzoic acid]
